Measured values published in ChEMBL document CHEMBL3399953, “Structure-assisted ligand-binding analysis using fluorogenic photoaffinity labeling” (Bioorg Med Chem Lett, 2015).
Activity calls are given as the source filed them. The calls are words filed in the database; no cut-off is given here.

What was measured:
[1] = molecular target: Glutamate dehydrogenase 1, mitochondrial (Bos taurus) (UniProt P00366); test: Binding affinity to bovine glutamate dehydrogenase ATP binding site using assessed as fluorescence intensity at 80 uM by photo affinity labeling/reverse-phase HPLC of Lys-Cdigest assay in presence of ATP
[2] = molecular target: Glutamate dehydrogenase 1, mitochondrial (Bos taurus) (UniProt P00366); test: Binding affinity to bovine glutamate dehydrogenase ATP binding site using assessed as coumarin-labeled pepdite retention time at 80 uM by photo affinity labeling/reverse-phase HPLC of Lys-Cdigest assay in presence of ATP
[3] = molecular target: Glutamate dehydrogenase 1, mitochondrial (Bos taurus) (UniProt P00366); test: Binding affinity to bovine glutamate dehydrogenase ATP binding site using assessed as photo labeling level at 80 uM by photo affinity labeling/reverse-phase HPLC of Lys-Cdigest assay in presence of ADP
[4] = molecular target: Glutamate dehydrogenase 1, mitochondrial (Bos taurus) (UniProt P00366); test: Binding affinity to bovine glutamate dehydrogenase ATP binding site using assessed as photo labeling level at 80 uM by photo affinity labeling/reverse-phase HPLC of Lys-Cdigest assay in presence of ATP
[5] = molecular target: Glutamate dehydrogenase 1, mitochondrial (Bos taurus) (UniProt P00366); test: Binding affinity to bovine glutamate dehydrogenase ATP binding site using assessed as photo labeling level at 80 uM by photo affinity labeling/reverse-phase HPLC of Lys-Cdigest assay in presence of NADH
[6] = molecular target: Glutamate dehydrogenase 1, mitochondrial (Bos taurus) (UniProt P00366); test: Binding affinity to bovine glutamate dehydrogenase ATP binding site using assessed as photo labeling peak time at 80 uM by photo affinity labeling/reverse-phase HPLC of Lys-Cdigest assay in presence of 100 uM NADH/10 mM glutamate
[7] = molecular target: Glutamate dehydrogenase 1, mitochondrial (Bos taurus) (UniProt P00366); test: Binding affinity to bovine glutamate dehydrogenase ATP binding site using assessed as decrease in photo labeling peak time at 80 uM by photo affinity labeling/reverse-phase HPLC of Lys-Cdigest assay in presence of 100 uM NADH/10 mM glutamate relative to NADH alone

Sequence of Glutamate dehydrogenase 1, mitochondrial (Bos taurus) (P00366 whole entry): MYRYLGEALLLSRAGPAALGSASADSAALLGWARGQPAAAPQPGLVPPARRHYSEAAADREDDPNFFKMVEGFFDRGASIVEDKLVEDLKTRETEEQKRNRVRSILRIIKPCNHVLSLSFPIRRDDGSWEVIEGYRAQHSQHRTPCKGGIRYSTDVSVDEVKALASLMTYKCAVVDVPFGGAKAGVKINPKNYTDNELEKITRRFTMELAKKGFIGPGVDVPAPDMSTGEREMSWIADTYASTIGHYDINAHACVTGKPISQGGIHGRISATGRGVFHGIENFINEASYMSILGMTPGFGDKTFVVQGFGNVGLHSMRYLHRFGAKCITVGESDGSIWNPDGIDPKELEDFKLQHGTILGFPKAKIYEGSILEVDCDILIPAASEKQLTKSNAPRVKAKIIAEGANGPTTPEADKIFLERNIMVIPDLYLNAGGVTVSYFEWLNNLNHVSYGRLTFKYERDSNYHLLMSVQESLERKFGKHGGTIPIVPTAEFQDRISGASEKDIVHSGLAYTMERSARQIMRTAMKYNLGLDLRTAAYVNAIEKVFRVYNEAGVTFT

Activity [1]	Retention time [2] [min]	Activity [3]	Activity [4] [%]	Activity [5] [%]	Retention time [6] [min]	inhibition [7] [%]	Compound
Active	21.1	10%	55	89	21.1	59	C/C(=C\c1ccc(C2(C(F)(F)F)N=N2)cc1O)C(=O)NCCNP(=O)(O)OP(=O)(O)OP(=O)(O)OC[C@H]1O[C@@H](n2cnc3c(N)ncnc32)[C@H](O)[C@@H]1O
Active		Active					C/C(=C\c1ccc(C2(C(F)(F)F)N=N2)cc1O)C(=O)NCCNP(=O)(O)OP(=O)(O)OC[C@H]1O[C@@H](n2cnc3c(N)ncnc32)[C@H](O)[C@@H]1O
